Reference: PubChem BioAssay (NCI)
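Dose response: 5 concentrations. Exposure: 48 h. Format: 96-well plates. Endpoint: linear interpolation; highest concentration if not reached. TGI is the concentration that stops growth completely.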

Columns and labels:
Assay in all cases: NCI-60 cell line screen, 48 h
MDA-MB-435 = system: MDA-MB-435
COLO 205 colon = system: COLO 205 colon
SK-MEL-2 melanoma = system: SK-MEL-2 melanoma
UO-31 renal = system: UO-31 renal
NCI-H23 lung = system: NCI-H23 lung
A498 renal = system: A498 renal
CAKI-1 renal = system: CAKI-1 renal
HCT-116 colon = system: HCT-116 colon
NCI-H460 lung = system: NCI-H460 lung
NCI/ADR-RES ovarian = system: NCI/ADR-RES ovarian
SK-MEL-28 melanoma = system: SK-MEL-28 melanoma
ACHN renal = system: ACHN renal
KM12 colon = system: KM12 colon
A549 NSCLC = system: A549 NSCLC
DU-145 prostate = system: DU-145 prostate
K-562 leukemia = system: K-562 leukemia
RPMI-8226 leukemia = system: RPMI-8226 leukemia
SW-620 colon = system: SW-620 colon
OVCAR-3 ovarian = system: OVCAR-3 ovarian
NCI-H226 lung = system: NCI-H226 lung
SK-OV-3 ovarian = system: SK-OV-3 ovarian
SNB-19 CNS = system: SNB-19 CNS
SF-268 CNS = system: SF-268 CNS
SN12C renal = system: SN12C renal
OVCAR-4 ovarian = system: OVCAR-4 ovarian
OVCAR-5 ovarian = system: OVCAR-5 ovarian
PC-3 prostate = system: PC-3 prostate
OVCAR-8 ovarian = system: OVCAR-8 ovarian
MDA-N = system: MDA-N
HCC-2998 colon = system: HCC-2998 colon
HS 578T breast = system: HS 578T breast
HOP-62 NSCLC = system: HOP-62 NSCLC
T-47D breast = system: T-47D breast
BT-549 breast = system: BT-549 breast
CCRF-CEM leukemia = system: CCRF-CEM leukemia
UACC-62 melanoma = system: UACC-62 melanoma
U251 CNS = system: U251 CNS
786-0 renal = system: 786-0 renal
SNB-75 CNS = system: SNB-75 CNS
UACC-257 melanoma = system: UACC-257 melanoma
HCT-15 colon = system: HCT-15 colon
MOLT-4 leukemia = system: MOLT-4 leukemia
MALME-3M melanoma = system: MALME-3M melanoma
HT29 colon = system: HT29 colon
SF-295 CNS = system: SF-295 CNS
SF-539 CNS = system: SF-539 CNS
M14 melanoma = system: M14 melanoma
EKVX NSCLC = system: EKVX NSCLC
MDA-MB-231 breast = system: MDA-MB-231 breast
MCF7 breast = system: MCF7 breast
SK-MEL-5 melanoma = system: SK-MEL-5 melanoma
HOP-92 NSCLC = system: HOP-92 NSCLC
SR leukemia = system: SR leukemia
NCI-H522 lung = system: NCI-H522 lung
IGROV1 ovarian = system: IGROV1 ovarian
TK-10 renal = system: TK-10 renal
HL-60(TB) leukemia = system: HL-60(TB) leukemia
RXF 393 renal = system: RXF 393 renal
LOX IMVI melanoma = system: LOX IMVI melanoma

For O=C1c2ccccc2-c2c1c(-c1ccc([N+](=O)[O-])cc1)nc1ccc3ccccc3c21, the TGI (MDA-MB-435) was greater than 100 µM, the TGI (COLO 205 colon) was greater than 100 µM and the TGI (SK-MEL-2 melanoma) was greater than 100 µM. For the same compound, the TGI (UO-31 renal) was greater than 100 µM, the TGI (NCI-H23 lung) was greater than 100 µM and the TGI (A498 renal) was greater than 100 µM. It also gave a TGI (CAKI-1 renal) greater than 100 µM, a TGI (HCT-116 colon) greater than 100 µM and a TGI (NCI-H460 lung) greater than 100 µM. The TGI (NCI/ADR-RES ovarian) was greater than 100 µM, the TGI (SK-MEL-28 melanoma) was greater than 100 µM and the TGI (ACHN renal) was greater than 100 µM. For the same compound, the TGI (KM12 colon) was greater than 100 µM, the TGI (A549 NSCLC) was greater than 100 µM and the TGI (DU-145 prostate) was greater than 100 µM. It also gave a TGI (K-562 leukemia) greater than 100 µM, a TGI (RPMI-8226 leukemia) greater than 100 µM and a TGI (SW-620 colon) greater than 100 µM. For the same compound, the TGI (OVCAR-3 ovarian) was greater than 100 µM, the TGI (NCI-H226 lung) was greater than 100 µM and the TGI (SK-OV-3 ovarian) was greater than 100 µM. The TGI (SNB-19 CNS) was greater than 100 µM, the TGI (SF-268 CNS) was greater than 100 µM and the TGI (SN12C renal) was greater than 100 µM. For the same compound, the TGI (OVCAR-4 ovarian) was greater than 100 µM, the TGI (OVCAR-5 ovarian) was greater than 100 µM and the TGI (PC-3 prostate) was greater than 100 µM. The TGI (OVCAR-8 ovarian) was greater than 100 µM, the TGI (MDA-N) was greater than 100 µM and the TGI (HCC-2998 colon) was greater than 100 µM. The TGI (HS 578T breast) was greater than 100 µM, the TGI (HOP-62 NSCLC) was greater than 100 µM and the TGI (T-47D breast) was greater than 100 µM. It also gave a TGI (BT-549 breast) greater than 100 µM, a TGI (CCRF-CEM leukemia) greater than 100 µM and a TGI (UACC-62 melanoma) greater than 100 µM. For the same compound, the TGI (U251 CNS) was greater than 100 µM, the TGI (786-0 renal) was greater than 100 µM and the TGI (SNB-75 CNS) was greater than 100 µM. For the same compound, the TGI (UACC-257 melanoma) was greater than 100 µM, the TGI (HCT-15 colon) was greater than 100 µM and the TGI (MOLT-4 leukemia) was greater than 100 µM. It also gave a TGI (MALME-3M melanoma) greater than 100 µM, a TGI (HT29 colon) greater than 100 µM and a TGI (SF-295 CNS) greater than 100 µM. The TGI (SF-539 CNS) was greater than 100 µM, the TGI (M14 melanoma) was greater than 100 µM and the TGI (EKVX NSCLC) was greater than 100 µM. It also gave a TGI (MDA-MB-231 breast) greater than 100 µM and a TGI (MCF7 breast) greater than 100 µM.
With O=[N+]([O-])c1ccc2c(c1)Nc1c3ccccc3nc3cccc-2c13 the TGI (MDA-MB-435) was 36 µM, the TGI (COLO 205 colon) was 19.8 µM and the TGI (SK-MEL-2 melanoma) was 39.5 µM. For the same compound, the TGI (UO-31 renal) was 28.9 µM, the TGI (NCI-H23 lung) was greater than 55.1 µM and the TGI (A498 renal) was greater than 100 µM. It also gave a TGI (SK-MEL-5 melanoma) of 5.51 µM, a TGI (CAKI-1 renal) of 18.8 µM and a TGI (HCT-116 colon) of 28.8 µM. For the same compound, the TGI (NCI-H460 lung) was 12.5 µM, the TGI (NCI/ADR-RES ovarian) was 17.1 µM and the TGI (SK-MEL-28 melanoma) was 24.8 µM. It also gave a TGI (ACHN renal) greater than 60.5 µM, a TGI (KM12 colon) greater than 100 µM and a TGI (A549 NSCLC) of 15.9 µM. For the same compound, the TGI (DU-145 prostate) was 9.43 µM, the TGI (K-562 leukemia) was greater than 19.7 µM and the TGI (RPMI-8226 leukemia) was greater than 39 µM. For the same compound, the TGI (SW-620 colon) was 15.8 µM, the TGI (OVCAR-3 ovarian) was 3.8 µM and the TGI (NCI-H226 lung) was greater than 93.6 µM. For the same compound, the TGI (SK-OV-3 ovarian) was 8.41 µM, the TGI (SNB-19 CNS) was 47.6 µM and the TGI (SF-268 CNS) was 40.5 µM. For the same compound, the TGI (SN12C renal) was greater than 80 µM, the TGI (OVCAR-4 ovarian) was 11.4 µM and the TGI (OVCAR-5 ovarian) was 20.5 µM. For the same compound, the TGI (HOP-92 NSCLC) was 18.8 µM, the TGI (PC-3 prostate) was 16.9 µM and the TGI (OVCAR-8 ovarian) was 40.4 µM. The TGI (MDA-N) was 15.2 µM, the TGI (HCC-2998 colon) was 0.341 µM and the TGI (SR leukemia) was 8.91 µM. It also gave a TGI (HS 578T breast) greater than 100 µM, a TGI (NCI-H522 lung) of 33.2 µM and a TGI (HOP-62 NSCLC) of 7.7 µM. For the same compound, the TGI (T-47D breast) was 43.2 µM, the TGI (IGROV1 ovarian) was 15.4 µM and the TGI (BT-549 breast) was 29.8 µM. The TGI (CCRF-CEM leukemia) was 6.19 µM, the TGI (TK-10 renal) was 17.3 µM and the TGI (UACC-62 melanoma) was 18.1 µM. It also gave a TGI (HL-60(TB) leukemia) greater than 23.1 µM, a TGI (U251 CNS) of 18.6 µM and a TGI (RXF 393 renal) of 32.9 µM. For the same compound, the TGI (786-0 renal) was 7.36 µM, the TGI (SNB-75 CNS) was 11.7 µM and the TGI (UACC-257 melanoma) was 47.9 µM. It also gave a TGI (LOX IMVI melanoma) of 6.67 µM, a TGI (HCT-15 colon) of 81.2 µM and a TGI (MOLT-4 leukemia) of 34.6 µM. For the same compound, the TGI (MALME-3M melanoma) was 19.4 µM, the TGI (HT29 colon) was greater than 51.6 µM and the TGI (SF-295 CNS) was 6.98 µM. The TGI (SF-539 CNS) was 44.3 µM, the TGI (M14 melanoma) was 16.9 µM and the TGI (EKVX NSCLC) was 48.7 µM. It also gave a TGI (MDA-MB-231 breast) greater than 25.4 µM.
